Read-outs that look alike come from different tables or passages of the source.
Assays:
[1] = test system: IP3R1; conditions: other tissues or isolated IP3R1; read-out: EC50 of IP3 for IP3-induced Ca2+ release; cited from earlier work
[2] = test system: Purkinje cells; conditions: intact Purkinje cells; read-out: EC50 of IP3 for IP3-induced Ca2+ release; cited from earlier work
[3] = target: T1, IP3R1 (Mus musculus, UniProt P11881); assay: [3H]IP3 binding assay with purified IP3R1 in the presence or absence of CARP (Scatchard plot); conditions: for Kd: mean of three separate experiments, read-out: dissociation constant (Kd±S.D.) of IP3 binding to IP3R1
Protocol: The inventors conducted a binding assay using purified IP3R1, to evaluate effect of CARP on IP3-binding affinity to IP3R1. Purified IP3R1 was incubated with various concentration of [^3H] IP3 in the presence or absence of purified recombinant CARP, and analyzed by a Scatchard plot.
IP3 binding to IP3R1 by IP3 in the presence (▪ in FIG. 6) and in the absence (● in FIG. 6) of CARP. In FIG. 6, the horizontal axis represents an amount of binding IP3 (pmol/mg), and the vertical axis represents an amount of binding IP3 divided by an amount of non-binding IP3 (pmol/mg/nM).
[^3H]IP3 binding to IP3R1 was assayed by polyethylene glycol precipitation in the presence or absence of CARP in accordance with the method as reported previously (Maeda, N., Niinobe, M., et al, (1990), EMBO J.,9,61-67). 0.5 μg of purified IP3R1 was incubated with or without 10 μg of purified His-CARP in 50 μL of a solution containing 50 mM Tris-HCl, pH 8.0, 1 mM EDTA, 1 mM 2-mercaptoethanol, 9.6 nM [^3H] IP3 and different concentration of IP3, for 10 min at 4° C. Nonspecific binding was measured in the presence of 10 μM IP3.
Target sequence in this assay (P11881 whole entry): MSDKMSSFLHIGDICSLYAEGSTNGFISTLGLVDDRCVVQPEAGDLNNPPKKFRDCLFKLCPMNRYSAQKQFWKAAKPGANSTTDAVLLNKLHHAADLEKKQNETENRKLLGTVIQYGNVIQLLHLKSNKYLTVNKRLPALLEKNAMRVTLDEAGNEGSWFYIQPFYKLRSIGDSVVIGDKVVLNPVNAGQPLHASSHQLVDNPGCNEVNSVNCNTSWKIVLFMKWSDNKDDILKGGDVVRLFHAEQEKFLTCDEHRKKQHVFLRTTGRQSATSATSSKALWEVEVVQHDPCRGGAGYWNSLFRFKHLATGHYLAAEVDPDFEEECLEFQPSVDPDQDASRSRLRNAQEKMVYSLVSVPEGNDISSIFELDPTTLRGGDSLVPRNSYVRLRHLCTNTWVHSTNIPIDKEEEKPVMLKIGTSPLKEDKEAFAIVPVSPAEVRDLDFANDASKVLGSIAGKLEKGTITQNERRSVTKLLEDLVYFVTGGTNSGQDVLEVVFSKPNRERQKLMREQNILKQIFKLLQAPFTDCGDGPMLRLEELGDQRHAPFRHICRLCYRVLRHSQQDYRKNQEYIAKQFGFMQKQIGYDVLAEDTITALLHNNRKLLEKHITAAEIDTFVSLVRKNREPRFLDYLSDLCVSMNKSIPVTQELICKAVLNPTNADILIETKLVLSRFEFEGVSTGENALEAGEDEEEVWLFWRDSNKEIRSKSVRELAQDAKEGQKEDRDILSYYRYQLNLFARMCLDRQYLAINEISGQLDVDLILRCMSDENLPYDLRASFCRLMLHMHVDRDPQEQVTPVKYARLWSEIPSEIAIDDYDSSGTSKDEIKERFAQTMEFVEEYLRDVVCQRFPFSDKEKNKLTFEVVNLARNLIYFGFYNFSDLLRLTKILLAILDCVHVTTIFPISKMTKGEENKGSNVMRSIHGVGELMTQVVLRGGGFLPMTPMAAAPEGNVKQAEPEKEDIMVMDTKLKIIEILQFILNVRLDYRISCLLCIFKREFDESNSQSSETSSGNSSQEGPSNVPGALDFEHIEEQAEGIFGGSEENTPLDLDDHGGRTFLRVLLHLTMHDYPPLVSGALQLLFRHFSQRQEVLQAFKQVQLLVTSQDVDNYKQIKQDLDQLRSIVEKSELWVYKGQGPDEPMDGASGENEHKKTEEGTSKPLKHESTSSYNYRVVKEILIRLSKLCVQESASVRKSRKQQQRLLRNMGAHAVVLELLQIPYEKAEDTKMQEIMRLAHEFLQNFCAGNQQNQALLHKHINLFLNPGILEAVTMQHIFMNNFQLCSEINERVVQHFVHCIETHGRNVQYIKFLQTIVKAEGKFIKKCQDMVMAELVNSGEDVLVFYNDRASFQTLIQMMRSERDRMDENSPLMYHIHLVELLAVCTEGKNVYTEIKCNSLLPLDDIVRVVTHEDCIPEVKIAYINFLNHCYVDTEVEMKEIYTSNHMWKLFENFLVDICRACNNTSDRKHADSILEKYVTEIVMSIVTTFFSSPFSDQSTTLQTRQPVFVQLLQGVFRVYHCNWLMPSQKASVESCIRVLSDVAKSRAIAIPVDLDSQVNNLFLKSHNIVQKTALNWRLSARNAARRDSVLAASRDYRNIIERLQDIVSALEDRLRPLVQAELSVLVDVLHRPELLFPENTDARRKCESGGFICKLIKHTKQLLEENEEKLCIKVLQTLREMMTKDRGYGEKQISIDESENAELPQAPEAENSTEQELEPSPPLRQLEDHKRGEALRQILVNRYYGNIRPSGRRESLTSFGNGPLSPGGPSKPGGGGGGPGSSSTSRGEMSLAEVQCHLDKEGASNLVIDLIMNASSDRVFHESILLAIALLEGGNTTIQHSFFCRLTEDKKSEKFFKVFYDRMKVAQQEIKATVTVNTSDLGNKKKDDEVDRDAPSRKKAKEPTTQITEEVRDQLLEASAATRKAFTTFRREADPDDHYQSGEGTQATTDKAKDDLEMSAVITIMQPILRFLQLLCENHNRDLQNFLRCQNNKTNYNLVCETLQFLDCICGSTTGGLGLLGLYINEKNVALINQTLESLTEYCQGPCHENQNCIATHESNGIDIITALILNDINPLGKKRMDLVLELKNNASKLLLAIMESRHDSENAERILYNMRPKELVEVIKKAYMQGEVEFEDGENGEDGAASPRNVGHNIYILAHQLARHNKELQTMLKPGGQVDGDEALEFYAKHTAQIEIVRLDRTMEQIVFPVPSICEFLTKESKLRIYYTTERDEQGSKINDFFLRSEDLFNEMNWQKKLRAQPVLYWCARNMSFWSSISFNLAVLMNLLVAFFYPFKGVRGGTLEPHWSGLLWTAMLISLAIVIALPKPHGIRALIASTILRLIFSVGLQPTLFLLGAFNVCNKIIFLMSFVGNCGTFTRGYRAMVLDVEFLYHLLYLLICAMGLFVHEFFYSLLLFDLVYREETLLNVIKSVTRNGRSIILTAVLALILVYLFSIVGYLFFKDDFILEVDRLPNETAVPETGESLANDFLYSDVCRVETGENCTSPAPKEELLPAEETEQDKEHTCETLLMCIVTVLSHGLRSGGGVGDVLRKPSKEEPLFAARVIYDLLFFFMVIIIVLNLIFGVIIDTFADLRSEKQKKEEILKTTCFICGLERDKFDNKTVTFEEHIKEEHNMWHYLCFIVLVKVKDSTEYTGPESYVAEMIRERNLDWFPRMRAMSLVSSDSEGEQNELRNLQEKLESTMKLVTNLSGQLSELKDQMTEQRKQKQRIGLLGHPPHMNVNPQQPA

[4] = reported; cited from earlier work
[5] = target: T2, GST-EL (amino acids 1-2217 of mIP3R1) (Mus musculus, UniProt P11881); assay: Pull-down assay with GST-EL (soluble IP3R1), immunoblot with anti-CARP antibody; assay type: binding; conditions: mouse cerebellar cytosolic fraction; GST as control
T2 construct: (amino acids 1-2217 of mIP3R1) and has GST in its N terminus; made in house; host or cells: Sf9 cells (recombinant baculovirus)
T2 sequence (P11881 1-2217, one chain of several): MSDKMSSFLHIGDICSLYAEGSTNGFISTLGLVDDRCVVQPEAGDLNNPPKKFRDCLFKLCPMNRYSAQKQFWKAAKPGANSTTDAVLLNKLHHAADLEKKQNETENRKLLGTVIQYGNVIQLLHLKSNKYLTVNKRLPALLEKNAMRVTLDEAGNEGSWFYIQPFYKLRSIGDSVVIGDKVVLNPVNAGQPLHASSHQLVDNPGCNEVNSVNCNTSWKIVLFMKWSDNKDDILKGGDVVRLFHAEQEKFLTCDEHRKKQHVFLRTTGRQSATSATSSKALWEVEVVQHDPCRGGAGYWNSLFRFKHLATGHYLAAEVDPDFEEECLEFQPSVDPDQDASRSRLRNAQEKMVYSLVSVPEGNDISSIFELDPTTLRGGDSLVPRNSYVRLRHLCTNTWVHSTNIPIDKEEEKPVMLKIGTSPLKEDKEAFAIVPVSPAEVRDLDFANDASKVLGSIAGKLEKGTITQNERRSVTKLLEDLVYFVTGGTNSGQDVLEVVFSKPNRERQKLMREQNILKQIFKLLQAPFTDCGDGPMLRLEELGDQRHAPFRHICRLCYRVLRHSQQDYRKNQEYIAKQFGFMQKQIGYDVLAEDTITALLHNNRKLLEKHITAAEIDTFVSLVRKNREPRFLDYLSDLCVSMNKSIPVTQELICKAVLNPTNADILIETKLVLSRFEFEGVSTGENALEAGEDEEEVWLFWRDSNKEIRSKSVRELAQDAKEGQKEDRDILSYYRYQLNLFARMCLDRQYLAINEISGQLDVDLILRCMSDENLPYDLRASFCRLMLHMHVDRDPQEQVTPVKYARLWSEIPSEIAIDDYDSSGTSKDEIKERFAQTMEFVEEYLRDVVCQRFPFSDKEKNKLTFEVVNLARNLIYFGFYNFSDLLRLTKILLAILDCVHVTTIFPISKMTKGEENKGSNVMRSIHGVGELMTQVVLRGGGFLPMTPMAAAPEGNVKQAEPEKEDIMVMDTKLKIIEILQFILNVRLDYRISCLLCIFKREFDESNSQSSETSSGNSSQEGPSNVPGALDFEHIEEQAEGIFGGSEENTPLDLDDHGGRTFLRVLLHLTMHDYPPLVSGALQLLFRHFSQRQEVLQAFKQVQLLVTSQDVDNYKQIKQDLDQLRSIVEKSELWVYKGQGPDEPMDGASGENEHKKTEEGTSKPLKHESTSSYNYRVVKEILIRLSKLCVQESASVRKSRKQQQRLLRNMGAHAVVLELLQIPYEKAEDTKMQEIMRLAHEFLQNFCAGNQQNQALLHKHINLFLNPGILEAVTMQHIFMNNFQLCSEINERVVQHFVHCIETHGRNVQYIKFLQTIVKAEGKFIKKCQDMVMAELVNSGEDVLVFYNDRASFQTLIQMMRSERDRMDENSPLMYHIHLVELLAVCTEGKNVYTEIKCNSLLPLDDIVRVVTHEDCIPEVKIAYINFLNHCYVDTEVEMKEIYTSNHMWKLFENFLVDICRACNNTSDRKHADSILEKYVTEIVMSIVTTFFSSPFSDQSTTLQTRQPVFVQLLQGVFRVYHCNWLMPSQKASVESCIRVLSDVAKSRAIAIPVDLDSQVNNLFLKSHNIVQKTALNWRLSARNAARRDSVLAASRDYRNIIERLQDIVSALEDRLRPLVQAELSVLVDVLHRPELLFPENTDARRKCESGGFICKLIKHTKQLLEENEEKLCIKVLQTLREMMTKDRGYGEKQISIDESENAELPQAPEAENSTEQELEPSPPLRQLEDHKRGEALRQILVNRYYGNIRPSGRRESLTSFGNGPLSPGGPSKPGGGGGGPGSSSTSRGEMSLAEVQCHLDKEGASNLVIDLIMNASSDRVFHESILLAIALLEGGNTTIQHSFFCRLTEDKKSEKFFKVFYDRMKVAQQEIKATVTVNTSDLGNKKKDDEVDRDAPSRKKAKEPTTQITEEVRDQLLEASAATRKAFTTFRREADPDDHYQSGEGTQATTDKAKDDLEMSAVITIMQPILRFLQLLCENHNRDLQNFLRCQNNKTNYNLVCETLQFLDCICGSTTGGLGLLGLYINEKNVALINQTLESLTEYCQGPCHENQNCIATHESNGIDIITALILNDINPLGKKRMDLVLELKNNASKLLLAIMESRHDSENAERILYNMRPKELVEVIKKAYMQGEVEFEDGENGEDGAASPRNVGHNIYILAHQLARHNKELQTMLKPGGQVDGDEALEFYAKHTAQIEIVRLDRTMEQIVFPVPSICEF
Text: (§1) Next, the inventors of the present application examined the interaction between CARP and IP3R1 by means of a pull-down method in order to obtain further evidence for the interaction by biochemical methods. The inventors first developed expression system in Sf9 cells, and made IP3R1 soluble by removing the channel domain. The soluble IP3R1, designated GST-EL, covers both the ligand binding domain and modulatory domain (amino acids 1-2217 of mIP3R1) and has GST in its N terminus. Mouse cerebellar cytosolic fraction was incubated with GST-EL or GST, and binding of CARP to the recombinant proteins was analyzed by immunoblotting with anti-CARP antibody. The results are shown in photographs of FIG. 4 which are substituted for drawings.
Adult mouse cerebella were homogenized in 10 mM HEPES (pH 7.4), 320 mM Sucrose, 2 mM EDTA, 1 mM 2-mercaptoethanol, and protease inhibitors and the homogenate was centrifuged at 1,000×g for 10 min. The supernatant was centrifuged at 100,000×g for 60 min to obtain the cytosolic fraction (the supernatant) and the crude microsome (the pellet). The cytosolic fraction was added with 100 mM NaCl, and incubated with 20 μg of GST-EL or GST for 2 hours at 4° C. […] The eluted proteins were analyzed by Western blotting with anti-CARP antibody. […]

[6] = target: T1, IP3R1; assay: Pull-down assay with GST-CARP on detergent extract of mouse cerebellar microsome, immunoblot with anti-IP3R1 antibody; assay type: binding; design: The crude microsome was solubilized with 1% Triton X-100; from tissue; host or cells: adult mouse cerebellum, crude microsome solubilized with Triton X-100 (GST-CARP made in Escherichia coli); conditions: GST as control
Text: as §1
The crude microsome was solubilized with 1% Triton X-100, and dissolved in 50 mM HEPES (pH7.4), 2 mM EDTA, 1 mM 2-mercaptoethanol, and protease inhibitors for 30 min at 4° C., and centrifuged at 20,000×g for 30 min. The supernatants were processed for pull-down assay with 10 μg of GST-CARP or GST as described above, and bound proteins were subjected to immunoblot analysis with anti-IP3R1 antibody KM1112.

O=P(O)(O)OC1C(O)C(O)C(OP(=O)(O)O)C(OP(=O)(O)O)C1O (stereo not shown) [IP3, inositol-1,4,5-triphosphate]
EC50 [1]: 100 to 1000 nM
EC50 [2]: ≥ 10000 nM
Bmax value of IP3 binding to IP3R1 ([3]; in the absence of CARP): 1720 ± 234 pmol/mg
Kd ([3]; in the absence of CARP): 18.2 ± 4.58 nM
Bmax value of IP3 binding to IP3R1 ([3]; in the presence of CARP): 1630 ± 108 pmol/mg
Kd ([3]; in the presence of CARP): 33.5 ± 2.07 nM

B1: CARP: mouse carbonic anhydrase-related protein, 291 amino acids, SEQ ID NO:2 (protein, listed as Mus musculus)
chain: MADLSFIEDAVAFPEKEEDEEEEEEEGVEWGYEEGVEWGLVFPDANGEYQSPINLNSREARYDPSLLDVRLSPNYVVCRDCEVTNDGHTIQVILKSKSVLSGGPLPGGQEFELYEVRFHWGRENQRGSEHTVNFKAFPMELHLIHWNSTLFGSIDEAVGKPHGIAIIALFVQIGKEHVGLKAVTEILQDIQYKGKSKTIPCFNPNTLLPDPLLRDYWVYEGSLTIPPCSEGVTWILFRYPLTISQMQIEEFRRLRTHVKGVELVEGCDGILGDNFRPTQPLSDRVIRAAFQ
carbonic anhydrase activity [4]: no carbonic anhydrase activity
effect of CARP on binding of IP3 to IP3R1 ([3]; 10 μg purified His-CARP, 0.5 μg purified IP3R1): inhibits binding of IP3 to IP3R1 not by antagonistic action but by reducing the affinity
binding of CARP to GST-EL in pull-down [5]: specifically binds to GST-EL, but not to GST alone

B2: GST-CARP: GST-fusion recombinant full-length CARP expressed in Escherichia coli (protein)
chain: B1 chain
modifications: left off: a dimerising Fc or GST
notes: GST-fusion recombinant full-length CARP expressed in Escherichia coli
binding of IP3R1 to GST-CARP in pull-down [6]: IP3R1 interacted with GST-CARP but not with GST
